Test results published in patent US20060095982A1 (priority 2002, published 2006).
Marks after values point to notes of the source that are not given here.

Tests used:
[1] = tested on: Salvia natans; settings: 5 μg/ml HgCl2; cited from earlier work
[2] = tested on: Bacopa monnieri; settings: 5 μg/ml HgCl2; cited from earlier work
[3] = tested on: WT tobacco plant (Petit Havana); experiment: Hg accumulation in shoots and roots (CVAAS), WT
[4] = tested on: WT tobacco plants; experiment: Speciation of Hg by X-ray absorption spectroscopy, WT
[5] = tested on: E. coli cells containing pLDR-MerAB and pLDR-MerAB-3′UTR; experiment: Mercury resistance bioassay in bacteria, transformed clones; settings: 24 hours at 37° C.
[6] = tested on: transgenic tobacco lines 5A (pLDR-MerAB) and 9 (pLDR-MerAB-3′UTR); experiment: Hg accumulation in shoots and roots (CVAAS), transgenic lines
[7] = tested on: Untransformed E. coli cells (XL1-blue); experiment: Mercury resistance bioassay in bacteria, untransformed control; settings: 25 μM HgCl2
[8] = tested on: mer-AB transgenic tobacco shoots and roots; experiment: Speciation of Hg by X-ray absorption spectroscopy, transgenic plants; settings: 100 μM for 15 d
[9] = tested on: WT tobacco plants; experiment: Plant growth and tolerance on Hg-amended soil (dry weight, root length), WT
[10] = tested on: chloroplast engineered pLDR-merAB and pLDR-merAB 3′UTR tobacco plants; experiment: Plant growth and tolerance on Hg-amended soil (dry weight, root length), transgenic lines
[11] = tested on: wild type tobacco plants (Petit Havana); settings: 14 days
[12] = tested on: merAB seedlings (pLDR-MerAB and pLDR-MerAB-3′UTR clones); settings: 14 days
[13] = tested on: wild type tobacco plants; settings: increase in PMA from 0 to 400 μM in soil, 14 d
[14] = tested on: transgenic tobacco lines 5A (pLDR-MerAB) and 9 (pLDR-MerAB-3′UTR)
[15] = tested on: leaf disks of wild type tobacco; settings: 10 μM PMA
[16] = tested on: leaf disks of transgenic tobacco lines; settings: 10 μM PMA
[17] = tested on: Chlorella; experiment: Preliminary heavy metal tolerance of wild-type Chlorella; settings: preliminary studies

[Cl][Hg][Cl] [HgCl2, mercuric chloride]
reduction of chlorophyll content [1]: 26% | reduction of chlorophyll content [2]: 35% | Hg accumulation, Root, WT ([3]; soil amended with 100 μM): 97.04 | Hg accumulation, Shoot, WT ([3]; soil amended with 100 μM): 4.74 | Hg accumulation, Root, WT ([3]; soil amended with 200 μM): 143.8 | Hg accumulation, Shoot, WT ([3]; soil amended with 200 μM): 0.57 | Hg accumulation, Root, WT ([3]; soil amended with 300 μM): 120.1 | Hg accumulation, Shoot, WT ([3]; soil amended with 300 μM): 0.23 | form of mercury accumulated by WT plants (XAS edge-fitting) [4]: entirely in the form of the mercury supplied | growth in liquid broth ([5]; 25 and 50 μM HgCl2, LB broth): able to grow | concentrations of HgCl2 in which cells were able to grow ([5]; solid agar plates, LB): up to 100 μM | mercury accumulated in shoots of transgenic plants relative to WT ([6]; 100 μM): 3 times | mercury accumulated in shoots of transgenic plants relative to WT ([6]; 200 μM): 9 times | Hg accumulation, Root, 5A ([6]; soil amended with 100 μM): 115.1 | Hg accumulation, Root, 9 ([6]; soil amended with 100 μM): 114.8 | Hg accumulation, Shoot, 5A ([6]; soil amended with 100 μM): 7.42 | Hg accumulation, Shoot, 9 ([6]; soil amended with 100 μM): 6.27 | Hg accumulation, Root, 5A ([6]; soil amended with 200 μM): 215.5 | Hg accumulation, Root, 9 ([6]; soil amended with 200 μM): 149.5 | Hg accumulation, Shoot, 5A ([6]; soil amended with 200 μM): 6.4** | Hg accumulation, Shoot, 9 ([6]; soil amended with 200 μM): 4.5* | Hg accumulation, Root, 5A ([6]; soil amended with 300 μM): 333.8* | Hg accumulation, Root, 9 ([6]; soil amended with 300 μM): 377.4 | Hg accumulation, Shoot, 5A ([6]; soil amended with 300 μM): 0.6* | Hg accumulation, Shoot, 9 ([6]; soil amended with 300 μM): 0.7* | growth of untransformed cells [7]: unable to grow | share of accumulated mercury in inorganic Hg-like form (XAS curve fitting) [8]: 77% | share of accumulated mercury in organic Hg-like form (XAS curve fitting) [8]: 33% | effect on root lengths of WT ([9]; concentration in soil from 0 to 300 μM): not significantly affected | difference between dry weights of WT and transgenic lines ([10]; concentration from 0 to 300 μM in soil): no significant differences | effect on root lengths of transgenic lines ([10]; concentration in soil from 0 to 300 μM, compared to WT): increased the roots lengths | toxicity to merAB-tobacco plants relative to PMA ([10]; supplied at the same concentration): less toxic

CC(=O)[O-].[Hg+][c]1ccccc1 [PMA, phenylmercuric acetate]
survival of wild type plants ([11]; 50 μM PMA in soil): barely survived | effect on wild type plants ([11]; 100 and 200 μM PMA in soil): lethal | survival of merAB seedlings ([12]; 200 μM PMA in soil): survived | PMA concentration at which seedlings grew well ([12]; soil, both transgenic clones): up to 100 μM | total dry weight of wild type plants [13]: decreased progressively | concentration tolerated when grown in soil ([14]; chloroplast transformed lines): up to 400 μM | total dry weight of transgenic plants ([14]; increase in PMA until PMA reached 400 μM, soil, 14 d): no decrease in total dry weight | chlorophyll content of leaf disks [15]: reduced | chlorophyll content of leaf disks [16]: markedly increased | form of mercury accumulated by WT plants (XAS edge-fitting) [4]: entirely in the form of the mercury supplied | average reduction of root length ([9]; WT, concentration increased from 0 μM to 300 μM): 6 cm | dry weights of WT shoots and roots ([9]; concentration increased from 0 to 300 μM in soil, 15 days): decreased progressively | average reduction of root length ([10]; both transgenic lines, concentration increased from 0 μM to 300 μM): 4 cm | dry weights of transgenic lines relative to WT ([10]; under PMA treatment): 2 fold

O=S(=O)([O-])[O-].[Cd+2] [cadmium sulfate]
level tolerated by Chlorella [17]: at least 200 μM
